42 compounds from ChEMBL document CHEMBL5252528, “Transient Receptor Potential Melastatin 8 Channel (TRPM8) Modulation: Cool Entryway for Treating Pain and Cancer” (J Med Chem, 2016) can be followed below.

For orientation: IC50 means the point on the concentration scale where inhibition reaches its midpoint. For orientation: EC50 means the midpoint of the concentration-response curve. As a reminder, the inhibition in vivo is how much of the control response was suppressed. The ED50 is the dose that gives a 50% effect, or the effect in half of the subjects.

For experiment [1], the target named is T1, Transient receptor potential cation channel subfamily M member 8 (Homo sapiens, UniProt Q7Z2W7). Nature of the experiment: Antagonist activity at human TRMP8 incubated for 24 hrs. In kind it is cell-based, HEK293.
T1 sequence (Q7Z2W7 whole entry): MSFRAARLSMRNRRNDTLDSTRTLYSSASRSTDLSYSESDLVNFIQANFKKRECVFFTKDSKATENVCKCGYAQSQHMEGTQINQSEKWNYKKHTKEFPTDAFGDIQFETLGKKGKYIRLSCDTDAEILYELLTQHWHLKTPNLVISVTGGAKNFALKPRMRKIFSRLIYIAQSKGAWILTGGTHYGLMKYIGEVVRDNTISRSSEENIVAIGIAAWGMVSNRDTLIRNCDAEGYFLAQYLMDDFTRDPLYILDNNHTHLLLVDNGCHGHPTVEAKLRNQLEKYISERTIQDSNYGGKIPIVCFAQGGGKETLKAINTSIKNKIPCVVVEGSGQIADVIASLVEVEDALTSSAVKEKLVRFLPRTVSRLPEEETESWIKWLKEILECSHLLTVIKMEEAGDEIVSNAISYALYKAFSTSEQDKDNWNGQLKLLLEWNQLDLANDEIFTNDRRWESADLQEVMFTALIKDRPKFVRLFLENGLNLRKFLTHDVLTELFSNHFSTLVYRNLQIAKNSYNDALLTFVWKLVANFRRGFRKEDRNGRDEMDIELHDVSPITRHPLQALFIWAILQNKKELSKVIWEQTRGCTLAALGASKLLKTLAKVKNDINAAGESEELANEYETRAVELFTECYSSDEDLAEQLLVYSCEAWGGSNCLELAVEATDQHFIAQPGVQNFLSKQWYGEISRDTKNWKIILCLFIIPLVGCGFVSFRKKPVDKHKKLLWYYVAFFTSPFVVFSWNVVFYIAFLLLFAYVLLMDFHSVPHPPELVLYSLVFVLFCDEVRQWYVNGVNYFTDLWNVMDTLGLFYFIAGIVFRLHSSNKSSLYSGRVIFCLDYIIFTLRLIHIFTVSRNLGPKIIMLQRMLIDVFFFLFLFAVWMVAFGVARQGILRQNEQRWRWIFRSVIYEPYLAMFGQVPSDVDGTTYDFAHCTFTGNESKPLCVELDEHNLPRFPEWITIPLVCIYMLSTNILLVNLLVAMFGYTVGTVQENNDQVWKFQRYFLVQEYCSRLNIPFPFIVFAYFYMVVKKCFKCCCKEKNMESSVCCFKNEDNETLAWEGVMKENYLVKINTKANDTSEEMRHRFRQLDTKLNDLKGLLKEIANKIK
Experiment [2] concerns the target T1, Transient receptor potential cation channel subfamily M member 8. The experiment is described as follows: Agonist activity at TRPM8 (unknown origin) by fluorometric imaging plate reader analysis.
Experiment [3] has the same target. Nature of the experiment: Antagonist activity at TRPM8 (unknown origin).
Experiment [4] deals with Rattus norvegicus. Nature of the experiment: Antihypersensitivity activity at icilin induced rat assessed as reduction in wet-dog shakes at 3 mg/kg relative to control. In kind it is functional.
Experiment [5] concerns the target T1, Transient receptor potential cation channel subfamily M member 8. The experiment is described as follows: Antagonist activity at human TRPM8 expressed in HEK293 cells assessed as reduction in menthol induced calcium influx. In kind it is cell-based.
For experiment [6] the target is unchanged. Nature of the experiment: Agonist activity at human TRMP8 expressed in HEK293 cells. In kind it is cell-based.
The target is the same in experiment [7]. Nature of the experiment: […] activity at human TRMP8 expressed in HEK293 cells incubated for 24 hrs by HTS assay. The class given is cell-based.
Experiment [8] has the same target. Nature of the experiment: Antagonist activity at human TRPM8 expressed in HEK293 cells. The class given is cell-based.
For experiment [9] the target is unchanged. The experiment is described as follows: […] activity at human TRMP8 expressed in HEK293 cells measured after 24 hrs of menthol activation by patch clamp assay. In kind it is cell-based.
For experiment [10] the target is unchanged. The experiment is described as follows: […] activity at human TRMP8 expressed in HEK293 cells measured after 24 hrs of cold activation by patch clamp assay. In kind it is cell-based.
In experiment [11] the test system is Rattus norvegicus. The experiment is described as follows: Antihypersensitivity activity at carrageenan induced rat assessed as reduction in heat hypersensitivity at 30 mg/kg, po relative to control. The class given is functional.
Experiment [12] deals with Rattus norvegicus. The experiment is described as follows: Antihypersensitivity activity at cfa induced rat assessed as thermal and mechanical hyperalgesia at 10 mg/kg, po relative to control. The class given is functional.
The species entered for experiment [13] is Rattus norvegicus. Nature of the experiment: Antihypersensitivity activity at rat assessed as reduction in wet-dog shakes relative to control. The class given is functional.
The species entered for experiment [14] is Rattus norvegicus. Nature of the experiment: Antihypersensitivity activity at rat assessed as cardiovascular pressor responses relative to control. The class given is functional.
Experiment [15] concerns Rattus norvegicus. The experiment is described as follows: Antinociceptive activity at rat assessed as reduction in pain at 30 mg/kg, po relative to control. The class given is functional.
Experiment [16] addresses Transient receptor potential cation channel subfamily M member 8 (Mus musculus, UniProt Q8R4D5). Nature of the experiment: Agonist activity at mouse TRMP8 expressed in HEK293 cells. In kind it is cell-based.
For experiment [17], the target named is T1, Transient receptor potential cation channel subfamily M member 8. Nature of the experiment: Antagonist activity at TRPM8 (unknown origin) by fluorescence based assay.
The target of experiment [18] is Transient receptor potential cation channel subfamily V member 1 (Homo sapiens, UniProt Q8NER1). The experiment is described as follows: Modulation of TRPV1 (unknown origin) by fluorometric imaging plate reader analysis.
The test system of experiment [19] is Rattus norvegicus. The experiment is described as follows: Reversal of icilin induced behaviours in rat at 30 mg/kg, po relative to control. The class given is functional.
Experiment [20] addresses T1, Transient receptor potential cation channel subfamily M member 8. Nature of the experiment: Agonist activity at human recombinant TRPM8.
Experiment [21] has as its target Transient receptor potential cation channel subfamily M member 8 (Rattus norvegicus) (UniProt Q8R455). The experiment is described as follows: In vivo antagonist activity at TRPM8 in po dosed rat assessed as shaking behaviour. The class given is functional, organism-based.
Experiment [22] deals with T1, Transient receptor potential cation channel subfamily M member 8. Nature of the experiment: Antagonist activity at human TRPM8 expressed in CHO cells. The class given is cell-based.
The test system of experiment [23] is Rattus norvegicus. The experiment is described as follows: Antihypersensitivity activity at rat assessed as reduction in wet-dog shakes at 1 mg/kg relative to control. In kind it is functional.
The target in experiment [24] is T1, Transient receptor potential cation channel subfamily M member 8. The experiment is described as follows: Antagonist activity at human TRPM8 expressed in […] induced HEK293 cells. In kind it is cell-based.
Experiment [25] shares this target. Nature of the experiment: Agonist activity at TRPM8 (unknown origin).
In experiment [26] the test system is Rattus norvegicus. Nature of the experiment: Reversal of icilin induced behaviours in rat at 10 mg/kg, po relative to control. In kind it is functional.
Experiment [27] is filed under the species Rattus norvegicus. Nature of the experiment: Antihypersensitivity activity at rat assessed as reduction in pain relative to control. The class given is functional.
Experiment [28] deals with Transient receptor potential cation channel subfamily A member 1 (Homo sapiens, UniProt O75762). Nature of the experiment: Agonist activity at TRPA1 (unknown origin).
Transient receptor potential cation channel subfamily A member 1, sequence (O75762 whole entry): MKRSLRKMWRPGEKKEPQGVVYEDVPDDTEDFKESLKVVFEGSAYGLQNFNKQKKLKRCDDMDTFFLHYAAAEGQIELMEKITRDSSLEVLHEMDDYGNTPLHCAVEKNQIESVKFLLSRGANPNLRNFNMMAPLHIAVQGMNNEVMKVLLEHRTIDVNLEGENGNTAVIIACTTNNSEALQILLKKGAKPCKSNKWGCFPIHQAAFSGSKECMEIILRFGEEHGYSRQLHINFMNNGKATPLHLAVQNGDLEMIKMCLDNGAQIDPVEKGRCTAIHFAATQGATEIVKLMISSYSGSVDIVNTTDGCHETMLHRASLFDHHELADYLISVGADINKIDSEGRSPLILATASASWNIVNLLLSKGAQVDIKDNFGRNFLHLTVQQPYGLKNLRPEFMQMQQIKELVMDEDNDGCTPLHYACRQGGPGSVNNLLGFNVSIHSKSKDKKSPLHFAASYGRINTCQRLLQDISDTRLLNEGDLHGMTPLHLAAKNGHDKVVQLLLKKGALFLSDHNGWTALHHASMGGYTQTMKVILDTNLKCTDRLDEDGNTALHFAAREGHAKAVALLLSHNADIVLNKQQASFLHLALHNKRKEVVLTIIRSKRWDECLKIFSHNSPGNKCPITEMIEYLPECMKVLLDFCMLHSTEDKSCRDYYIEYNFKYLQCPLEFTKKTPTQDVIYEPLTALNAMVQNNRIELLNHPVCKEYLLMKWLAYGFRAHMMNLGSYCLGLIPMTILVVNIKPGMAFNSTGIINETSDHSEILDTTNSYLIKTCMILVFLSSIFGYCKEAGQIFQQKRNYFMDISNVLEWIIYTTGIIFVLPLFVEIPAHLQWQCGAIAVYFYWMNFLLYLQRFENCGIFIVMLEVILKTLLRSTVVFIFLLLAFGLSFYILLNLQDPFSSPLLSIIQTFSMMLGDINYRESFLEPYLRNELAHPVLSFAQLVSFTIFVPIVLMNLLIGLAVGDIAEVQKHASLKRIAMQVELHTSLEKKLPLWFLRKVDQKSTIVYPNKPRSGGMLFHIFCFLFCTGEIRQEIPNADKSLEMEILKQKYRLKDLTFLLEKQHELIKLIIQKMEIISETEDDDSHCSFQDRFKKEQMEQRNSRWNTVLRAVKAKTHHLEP

Transient receptor potential cation channel subfamily M member 8 (Mus musculus, UniProt Q8R4D5), sequence (Q8R4D5 whole entry): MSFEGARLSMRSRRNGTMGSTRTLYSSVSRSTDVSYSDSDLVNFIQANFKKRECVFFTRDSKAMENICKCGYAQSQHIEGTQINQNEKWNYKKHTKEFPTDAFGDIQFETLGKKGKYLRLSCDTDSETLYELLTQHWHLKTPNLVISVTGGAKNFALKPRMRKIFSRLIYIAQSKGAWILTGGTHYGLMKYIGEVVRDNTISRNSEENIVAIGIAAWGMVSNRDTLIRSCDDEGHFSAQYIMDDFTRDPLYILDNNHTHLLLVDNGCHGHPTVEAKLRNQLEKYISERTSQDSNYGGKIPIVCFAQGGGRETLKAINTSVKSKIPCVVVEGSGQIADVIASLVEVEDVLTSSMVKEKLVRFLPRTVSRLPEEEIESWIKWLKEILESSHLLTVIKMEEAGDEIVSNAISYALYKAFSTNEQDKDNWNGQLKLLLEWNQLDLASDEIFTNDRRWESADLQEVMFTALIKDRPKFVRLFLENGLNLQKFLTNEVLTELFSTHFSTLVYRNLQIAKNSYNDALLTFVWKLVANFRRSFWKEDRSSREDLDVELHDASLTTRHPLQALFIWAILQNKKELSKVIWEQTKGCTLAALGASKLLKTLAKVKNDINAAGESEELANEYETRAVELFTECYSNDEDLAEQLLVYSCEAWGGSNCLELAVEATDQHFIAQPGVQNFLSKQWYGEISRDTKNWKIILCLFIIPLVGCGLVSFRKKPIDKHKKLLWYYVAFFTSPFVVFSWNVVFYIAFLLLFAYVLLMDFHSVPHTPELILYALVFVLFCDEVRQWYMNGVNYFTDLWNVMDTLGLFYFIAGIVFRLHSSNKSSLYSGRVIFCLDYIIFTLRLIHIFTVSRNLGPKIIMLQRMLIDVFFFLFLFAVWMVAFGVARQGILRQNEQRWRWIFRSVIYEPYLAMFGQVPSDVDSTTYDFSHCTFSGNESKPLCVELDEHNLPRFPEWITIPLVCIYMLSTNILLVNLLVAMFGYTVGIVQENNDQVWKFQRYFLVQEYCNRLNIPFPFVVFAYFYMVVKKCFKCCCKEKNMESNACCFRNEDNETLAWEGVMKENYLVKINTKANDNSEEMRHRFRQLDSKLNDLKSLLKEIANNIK
Transient receptor potential cation channel subfamily M member 8 (Rattus norvegicus), sequence (Q8R455 whole entry, looked up): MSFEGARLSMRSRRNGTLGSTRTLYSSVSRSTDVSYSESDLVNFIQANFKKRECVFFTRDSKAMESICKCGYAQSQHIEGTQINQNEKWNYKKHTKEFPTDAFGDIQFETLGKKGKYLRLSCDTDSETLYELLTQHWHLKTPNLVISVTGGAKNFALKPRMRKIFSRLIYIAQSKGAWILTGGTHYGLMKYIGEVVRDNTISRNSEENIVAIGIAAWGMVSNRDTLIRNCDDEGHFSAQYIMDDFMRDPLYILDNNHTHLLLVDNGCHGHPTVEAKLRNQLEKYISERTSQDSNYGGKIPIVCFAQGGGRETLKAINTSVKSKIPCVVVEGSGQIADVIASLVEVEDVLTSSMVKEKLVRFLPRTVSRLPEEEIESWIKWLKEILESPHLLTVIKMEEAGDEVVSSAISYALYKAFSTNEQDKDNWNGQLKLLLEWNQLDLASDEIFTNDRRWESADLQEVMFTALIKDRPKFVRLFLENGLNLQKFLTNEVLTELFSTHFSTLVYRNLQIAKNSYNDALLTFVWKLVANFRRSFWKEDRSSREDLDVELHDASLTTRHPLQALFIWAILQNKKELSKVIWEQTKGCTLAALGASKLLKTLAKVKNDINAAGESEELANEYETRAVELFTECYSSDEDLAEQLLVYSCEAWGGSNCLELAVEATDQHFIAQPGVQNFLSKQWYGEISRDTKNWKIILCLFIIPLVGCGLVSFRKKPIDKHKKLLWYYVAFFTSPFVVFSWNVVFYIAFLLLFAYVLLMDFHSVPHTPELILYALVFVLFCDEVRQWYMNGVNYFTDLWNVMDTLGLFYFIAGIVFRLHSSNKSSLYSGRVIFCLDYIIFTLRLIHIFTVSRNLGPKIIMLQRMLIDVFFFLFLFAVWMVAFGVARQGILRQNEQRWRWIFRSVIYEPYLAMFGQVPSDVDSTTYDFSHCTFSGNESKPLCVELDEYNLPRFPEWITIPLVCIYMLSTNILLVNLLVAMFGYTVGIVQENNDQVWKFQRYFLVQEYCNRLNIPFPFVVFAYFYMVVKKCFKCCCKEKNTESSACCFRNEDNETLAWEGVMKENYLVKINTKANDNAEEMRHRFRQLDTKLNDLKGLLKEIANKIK

As for `CCn1/c(=N/S(=O)(=O)c2ccccc2)n(Cc2ccc(C(F)(F)F)c(F)c2)c2cc(C(F)(F)F)ccc21`, the IC50 in [1] was determined as 0.005 µM.

In the case of `CC(C)[C@@H]1CC[C@@H](C)C[C@H]1C(=O)Nc1ccc(S(=O)(=O)Nc2ncccn2)cc1`, the response in experiment [2] was half-maximal at 4 µM (EC50).

In experiment [3], `CCCCC/C=C/C/C=C\C/C=C/C/C=C/CCCC(=O)NCCc1ccc(O)c(O)c1` had an IC50 of 0.7 µM.

For the compound `COc1ccccc1C(=O)N([C@H]1CCc2c(F)cc(Cl)cc21)[C@@H](C(N)=O)c1ccccc1`, the inhibition in vivo at 3 mg/kg in the experiment on Rattus norvegicus [4] is 100%.

As for `Cc1ccc2nc(C(F)(F)F)n(-c3ccc(C(=O)CN4C(=O)NC5(CCC(F)(F)CC5)C4=O)cc3)c2n1`, in experiment [5], the IC50 was less than 0.01 µM.

As for `C=CCc1ccc(O)c(OC)c1` [EUGENOL], in [6], the EC50 was 66 µM.

As to `Cc1c(N(Cc2ccc(OC(F)(F)F)cc2)S(=O)(=O)CCN2CCC(c3ccccc3)CC2)sc2ccccc12`, the IC50 in experiment [7] worked out at 0.026 µM.

In the case of `COc1cc(CN(CCN)C(=O)NC(C)c2ccccc2)ccc1OCc1ccccc1` (stereo not drawn), the IC50 in [8] turned out to be 0.05 nM.

For the compound `Cc1c(N(Cc2ccc(F)c(C(F)(F)F)c2)S(=O)(=O)c2ccc(C(=O)O)cc2)sc2ccccc12`, the half-maximal inhibitory concentration (IC50) in experiment [9] is 0.0011 µM; in experiment [10], 0.0023 µM. Further, the inhibition in vivo at 30 mg/kg in the experiment with Rattus norvegicus [11] amounted to 64%; in the experiment with Rattus norvegicus [15], 69%. For the same compound, the Activity in the experiment with Rattus norvegicus [12] came out at 91%. Also, in the experiment listed under Rattus norvegicus [13], the ED50 amounted to 2.5 mg/kg. Further, the “inhibition (INH)” value in the experiment listed under Rattus norvegicus [14] came to 75%.

On to `CC(C)=CCC/C(C)=C/CO` [GERANIOL], for which the response in experiment [16] was half-maximal at 6000 µM (EC50).

As for `CCCCC/C=C/C/C=C\C/C=C/C/C=C/CCCC(=O)NCCO`, 0.15 µM corresponded to half-maximal inhibition in experiment [3] (IC50).

For the compound `CCCCCc1cc2c(c(O)c1C(=O)O)[C@@H]1C=C(C)CC[C@H]1C(C)(C)O2` [DELTA9-TETRAHYDROCANNABINOLIC ACID A], in experiment [3], inhibition was half-maximal at 0.15 µM (IC50).

Turning to `CC(C)[C@@H]1CC[C@@H](C)C[C@H]1OC(=O)[C@@H](C)O`, the EC50 in experiment [2] worked out at 160 µM.

As for `C=C(C)[C@]12C[C@@H](C)[C@@]34OC(Cc5ccccc5)(O[C@@H]1C3C=C(COC(=O)Cc1ccc(O)c(OC)c1)C[C@]1(O)C(=O)C(C)=C[C@@H]41)O2` (stereo partly drawn), in experiment [3], half-maximal inhibition (IC50) required 0.15 µM.

For `Clc1ccc(COC(Cn2ccnc2)c2ccc(Cl)cc2Cl)cc1` (stereo not drawn) [ECONAZOLE], the midpoint of inhibition in experiment [3], the IC50, lay at 0.42 µM.

Regarding `COc1nc(-c2ccccc2Cl)cc2nc(-c3c(Cl)c(C(C)(C)C)nn3C)[nH]c12`, the IC50 in experiment [1] was 0.0035 µM.

On to `CC12CCC(CC1)C(C)(C)O2` [EUCALYPTOL], for which, in [16], a half-maximal response (EC50) required 7000 µM.

Take `COC(=O)C(NCc1ccccc1)[C@H](Cc1ccccc1)NC(=O)OCc1ccccc1` (stereo partly drawn): it took 3 µM to reach half-maximal inhibition in experiment [17] (IC50).

`Cc1c(N(Cc2ccc(F)c(C(F)(F)F)c2)S(=O)(=O)N2CCC(C(=O)O)CC2)sc2ccccc12` had an IC50 in experiment [7] of 0.026 µM.

For `CC(C)[C@@H]1CC[C@@H](C)C[C@H]1C(=O)NCC(NC(=O)[C@H](C)N)c1ccccc1` (stereo partly drawn), the EC50 in experiment [2] is less than 5 µM.

`C=CCc1cc(OC)c(OC(C)C(O[C@@H]2C[C@H](C)CC[C@H]2C(C)C)c2ccc(OC)c(OC)c2)c(OC)c1` (stereo partly drawn) came in with a 50% effective concentration (EC50) in experiment [2] of 10 µM.

`CCn1c(N(Cc2ccc(C(F)(F)F)cc2)S(=O)(=O)c2ccccc2)nc2cc(F)ccc21`: the IC50 in experiment [1] came out at 0.006 µM.

Regarding `CCCCCc1cc(O)c2c(c1)OC(C)(C)[C@@H]1CCC(C)=C[C@@H]21` [DRONABINOL], the IC50 in experiment [3] turned out to be 0.16 µM.

Turning to `c1ccc(CN(CCc2c[nH]c3ccccc23)Cc2ccccc2)cc1`, the IC50 in experiment [18] is 0.035 µM; in experiment [3] it was 0.8 µM.

On to `CC(C)OP(=O)(OC(C)C)[C@@H](Cc1ccc(F)c(C(F)(F)F)c1)c1sc2ccccc2c1Br`, for which, in experiment [7], the IC50 was found to be 0.009 µM. Further, the Activity with Rattus norvegicus [19] came to 80%.

The compound `C[C@H](N)[C@H](O)C/C=C\C/C=C\C/C=C\C/C=C\C/C=C\C/C=C\CCCCCC[C@@H](O)[C@H](C)N` returned an IC50 in [3] of 6 µM.

In experiment [3], `COc1cc(CN(CCN)c2nc3ccccc3s2)ccc1OCc1ccccc1F` had a 50% inhibitory concentration (IC50) of less than 0.02 µM.

Consider `COc1ccc(CCCOC(Cn2ccnc2)c2ccc(OC)cc2)cc1` (stereo not drawn), for which the IC50 in [3] was determined as 0.8 µM.

Take `COc1cnc(-c2ccccn2)nc1CC(C)C`: in experiment [20], the EC50 turned out to be 0.1 µM.

On to `C=C(C)[C@@H]1CCC(C)=C[C@H]1c1c(O)cc(CCCCC)cc1O` [CANNABIDIOL], for which, in experiment [3], it took 0.06 µM to reach half-maximal inhibition (IC50).

In experiment [2], `COc1ccc(NC(=O)[C@@H]2C[C@H](C)CC[C@H]2C(C)C)c(NC(=O)[C@@H](C)N)c1` displayed an EC50 of 3 µM.

For `O=C(O)c1ccc(S(=O)(=O)N(Cc2ccc(OC(F)(F)F)cc2)c2ncc(C(F)(F)F)cc2Cl)cc1`, in experiment [21], the ED50 was determined as 0.65 mg/kg.

For the compound `O=C(N[C@]1(c2ccc(OC(F)(F)F)cc2)CCOc2cccnc21)c1ccc2[nH]cnc2c1`, in [22], the IC50 stood at 0.004 µM. For the same compound, in the experiment with Rattus norvegicus [23], the inhibition in vivo at 1 mg/kg was more than 90%.

For `COc1cc(CNC(=O)CCCC/C=C/C(C)C)ccc1O` [CAPSAICIN], it took 1 µM to reach half-maximal inhibition in experiment [3] (IC50).

In turn, `NCCc1c[nH]c2ccc(Oc3ccccc3)cc12` came in with an IC50 in experiment [24] of 0.34 µM.

In experiment [3], `Clc1ccccc1C(c1ccccc1)(c1ccccc1)n1ccnc1` [CLOTRIMAZOLE] had an IC50 of 8 µM.

In turn, `Cc1cc(NC(C)C)no1` gave an EC50 in experiment [25] of 0.1 µM.

Regarding `COc1ccc2c(c1)n(CCN)c(=O)n2C(=O)[C@@H]1C[C@H](C)CC[C@H]1C(C)C`, the EC50 in experiment [2] was less than 5 µM.

Take `COc1ccc(NC(=O)[C@@H]2C[C@H](C)CC[C@H]2C(C)C)cc1` [ACOLTREMON]: a half-maximal response in [2] (EC50) required 12 µM.

Consider `FC(F)(F)c1ccccc1-c1cc(C(F)(F)F)c2[nH]c(C3=NOC4(CCCCC4)C3)nc2c1`, for which the Activity with Rattus norvegicus [26] was 98%. In the experiment filed under Rattus norvegicus [27], the “inhibition (INH)” value worked out at 83%.

On to `Clc1ccc(-c2nnc(N3CCOCC3)n2-c2ccccc2)cc1`, for which the EC50 in experiment [25] came out at 45 µM; in experiment [28], 4 µM.

On to `CCCCCc1cc(O)c(C/C=C(\C)CCC=C(C)C)c(O)c1` [CANNABIGEROL], for which the half-inhibitory concentration (IC50) in [3] was 0.16 µM.
